Measured values as given in patent publication US9365572B2, “PI3K and/or mTOR inhibitor” (XUANZHU PHARMA CO., LTD., priority 2012, dated 2016).
pIC50: −log10 of the molar value.

Legend:
[1] = system: Glutamate, NMDA, Phencyclidine; test: Radioligand binding assay No. 233000; settings: test substance 10 μM; rat
PI3Kα = PI3Kα (Homo sapiens (Human), UniProt P42336); test: PI3Kα enzymatic assay; assay type: biochemical; settings: read-out: In vitro enzymatic activity (IC50) PI3Kα
Experimental: Assay 1-2: In Vitro Enzymatic Inhibitory Activity of the Present Compound
• 1.1 1-fold kinase buffer: 50 mM HEPES, pH 7.5, 10 mM MgCl2, 1 mM EGTA, 3 mM MnCl2, 0.01% Tween-20, 2 mM DTT; • 1.2 4-fold kinase solution: mTOR kinase was added to 1-fold kinase buffer to form 4-fold kinase solution with a final concentration of 2.5 nM; • 1.3 2-fold substrate and ATP solution: the substrate 4EBP1 and ATP were added to 1-fold kinase buffer to form 2-fold substrate solution with final concentration of 50 nM of 4EBP1 and 10.8 μM of ATP; • 1.4 4-fold test substance solutions: 100-fold test substance solutions in different gradient concentrations were formulated with 100% DMSO, and diluted by 25 folds with 1-fold kinase buffer to form 4-fold test substance solutions in different gradient concentrations. • 1.5 Preparation of detection solution: a detection solution containing 2-fold final concentrations of EDTA and 4EBP1 phosphorylated antibody was formulated, wherein the final concentration for EDTA was 8 mM, and the final concentration for the 4EBP phosphorylated antibody was 2 nM. 2. Procedure • 2.1 To each well of a 384-well plate was added 2.5 μL of the 4-fold test substance solutions in gradient concentrations. The replication was made. • 2.2 To each well was added 2.5 μL of 4-fold kinase solution, and then the plate was incubated for 10 mins; • 2.3 Then to each well was added 5 μL/of 2-fold substrate and ATP solution, and then the plate was incubated at room temperature for 1 hour; • 2.4 Finally, 10 μL of the detection solution was added to terminate the reaction. After 60 mins, the data Lance signal ([…]) was read from Envision. 3 Data treatment Inhibition rate (%)=[…] • wherein: • maximum refers to the reading at the DMSO control well. • minimum refers to the reading at the control well without kinase, • The data was input into Graphpad Prism 5.0 to plot and obtain the curve and IC50 value. PI3Kα Enzymatic Assay 1. […] After 15 mins, the data Lance signal ([…]) was read from Envision. 3 Data treatment Inhibition rate (%)=100−(sample value−minimum)/(maximum−minimum)×100 • wherein: • maximum refers to the reading at the control well without kinase, • minimum refers to the reading at the DMSO control well, • The data was input into Graphpad Prism 5.0 to plot and obtain the curve and IC50 value. […]

Chain of PI3Kα (P42336 whole entry): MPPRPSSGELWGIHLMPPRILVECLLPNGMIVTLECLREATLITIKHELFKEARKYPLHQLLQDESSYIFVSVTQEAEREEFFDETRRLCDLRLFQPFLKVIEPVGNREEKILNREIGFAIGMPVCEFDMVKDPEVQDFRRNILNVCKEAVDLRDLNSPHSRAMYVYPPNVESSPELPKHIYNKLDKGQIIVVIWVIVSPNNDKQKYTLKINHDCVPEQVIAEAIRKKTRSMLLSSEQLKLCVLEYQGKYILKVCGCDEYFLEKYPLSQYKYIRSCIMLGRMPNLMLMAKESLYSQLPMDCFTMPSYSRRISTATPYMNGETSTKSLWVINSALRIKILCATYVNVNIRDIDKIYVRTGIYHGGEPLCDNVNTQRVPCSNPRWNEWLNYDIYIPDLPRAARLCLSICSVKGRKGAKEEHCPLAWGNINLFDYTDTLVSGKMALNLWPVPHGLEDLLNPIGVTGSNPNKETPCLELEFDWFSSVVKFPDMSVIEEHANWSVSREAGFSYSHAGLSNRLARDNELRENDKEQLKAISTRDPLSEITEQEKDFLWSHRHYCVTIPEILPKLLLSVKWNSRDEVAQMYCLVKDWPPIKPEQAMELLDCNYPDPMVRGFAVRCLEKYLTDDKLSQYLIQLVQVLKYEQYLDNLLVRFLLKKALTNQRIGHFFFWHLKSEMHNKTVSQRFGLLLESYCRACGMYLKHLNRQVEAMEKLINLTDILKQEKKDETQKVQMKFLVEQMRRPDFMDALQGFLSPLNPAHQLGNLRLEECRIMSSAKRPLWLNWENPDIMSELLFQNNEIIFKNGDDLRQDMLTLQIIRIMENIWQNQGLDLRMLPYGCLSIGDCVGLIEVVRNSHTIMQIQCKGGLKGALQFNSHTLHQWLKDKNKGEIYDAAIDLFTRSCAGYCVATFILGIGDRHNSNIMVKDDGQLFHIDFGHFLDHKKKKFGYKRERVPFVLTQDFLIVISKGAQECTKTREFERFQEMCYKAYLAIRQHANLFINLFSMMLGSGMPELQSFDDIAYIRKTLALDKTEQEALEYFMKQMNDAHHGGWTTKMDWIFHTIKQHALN
Chain of PI3Kα (P27986 whole entry partner): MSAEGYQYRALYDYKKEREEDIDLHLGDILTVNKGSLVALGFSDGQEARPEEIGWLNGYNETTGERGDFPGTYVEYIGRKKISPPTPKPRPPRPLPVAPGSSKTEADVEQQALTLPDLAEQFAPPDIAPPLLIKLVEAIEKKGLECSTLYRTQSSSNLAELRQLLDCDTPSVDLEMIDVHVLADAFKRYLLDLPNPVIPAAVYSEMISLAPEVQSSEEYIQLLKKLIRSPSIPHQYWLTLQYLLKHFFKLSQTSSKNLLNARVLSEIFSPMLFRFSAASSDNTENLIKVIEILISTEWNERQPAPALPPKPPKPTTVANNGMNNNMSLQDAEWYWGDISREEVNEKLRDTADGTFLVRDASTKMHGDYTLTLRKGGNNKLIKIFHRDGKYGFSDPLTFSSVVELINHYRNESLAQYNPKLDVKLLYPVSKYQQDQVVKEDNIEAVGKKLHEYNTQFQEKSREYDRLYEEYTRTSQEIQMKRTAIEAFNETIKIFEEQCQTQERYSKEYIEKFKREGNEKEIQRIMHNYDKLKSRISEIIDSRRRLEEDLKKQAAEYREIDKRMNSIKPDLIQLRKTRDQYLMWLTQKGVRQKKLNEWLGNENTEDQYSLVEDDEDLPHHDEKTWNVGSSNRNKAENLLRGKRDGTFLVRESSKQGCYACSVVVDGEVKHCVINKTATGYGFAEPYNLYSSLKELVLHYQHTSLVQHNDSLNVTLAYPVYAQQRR

Row | pIC50 (PI3Kα) | Structure (SMILES) | Inhibitory rate (%), Glutamate, NMDA, Phencyclidine [1] [%]
1 |  | Nc1ccc(-c2ccc3ncc4c(=O)[nH]c(=O)n(-c5cccc(C(F)(F)F)c5)c4c3n2)cn1 [Compound 5, 9-(6-aminopyridin-3-yl)-1-(3-(trifluoromethyl)phenyl)pyrimido[5,4-c][1,5]naphthyridine-2,4(1H,3H)-dione] | 8
2 | 7.82 | O=c1[nH]c(=O)n(-c2cccc(C(F)(F)F)c2)c2c1cnc1ccc(-c3cnc4[nH]ccc4c3)nc12 [Compound 30, 9-(1H-pyrrolo[2,3-b]pyridin-5-yl)-1-(3-(trifluoromethyl)phenyl)pyrimido[5,4-c][1,5]naphthyridine-2,4(1H,3H)-dione] | 
